# Results: patent publication US7476753B2, “3-aryl-2-cyano-3-hydroxy-acrylic acid derivatives” (Ciba Specialty Chemicals Corporation, priority 2003, dated 2009)
# Like-named read-outs stand apart in the source and are kept apart here.
# How the values were obtained:
# [1] = tested on: Pseudomonas aeruginosa ATCC 15442; experiment: MIC, Agar incorporation test; type: cell-based; details: Pseudomonas aeruginosa, ATCC15442, 24 hours at 37° C.
# Method: (§1) 0.3 ml of each dilution step is mixed with 15 ml of nutrient medium while the latter is still liquid. After the nutrient medium has solidified, 10 μl of each of the following organism dilutions of the test strains in 0.85% NaCl solution are spotted onto the agar medium.
# (§2) The plates are incubated during 24 hours at 37° C. and then the highest dilution (lowest concentration) of the test substance at which growth is just no longer discernible (corresponds to the MIC) is determined.
# [2] = tested on: Escherischia coli ATCC 10536; experiment: MIC, Agar incorporation test; type: cell-based; details: 24 hours at 37° C.
# Method: as §1, §2
# [3] = tested on: C. minutissimum ATCC 23348; experiment: MIC, Agar incorporation test; type: cell-based; details: Corynebacterium minutissimum, ATCC23348, 24 hours at 37° C.
# Method: as §1, §2
# [4] = tested on: Propionibacterium acnes ATCC 6919; experiment: MIC, Agar incorporation test; type: cell-based; details: Cutibacterium acnes, ATCC6919, 24 hours at 37° C.
# Method: as §1, §2
# [5] = tested on: Aspergillus niger ATCC 6275; experiment: MIC, Agar incorporation test; type: cell-based; details: Aspergillus niger, ATCC6275
# Method: as §1, §2
# [6] = tested on: Staphylococcus epidermidis ATCC 12228; experiment: MIC, Agar incorporation test; type: cell-based; details: Staphylococcus epidermidis, ATCC12228, 24 hours at 37° C.
# Method: as §1, §2
# [7] = tested on: Proteus vulgaris ATCC 6896; experiment: MIC, Agar incorporation test; type: cell-based; details: Proteus vulgaris, ATCC6896, 24 hours at 37° C.
# Method: as §1, §2
# [8] = tested on: Corynebacterium xerosis ATCC 373; experiment: MIC, Agar incorporation test; type: cell-based; details: Corynebacterium xerosis, ATCC373, 24 hours at 37° C.
# Method: as §1, §2
# [9] = tested on: Klebsiella pneumoniae ATCC 4352; experiment: MIC, Agar incorporation test; type: cell-based; details: Klebsiella pneumoniae, ATCC4352, 24 hours at 37° C.
# Method: as §1, §2
# [10] = tested on: Staphylococcus aureus ATCC 6538; experiment: MIC, Agar incorporation test; type: cell-based; details: Staphylococcus aureus, ATCC6538, 24 hours at 37° C.
# Method: as §1, §2
# S. mutans ATCC33402 = experiment: MIC vs. oral germs, broth dilution method; type: cell-based, Streptococcus mutans; details: Streptococcus mutans, read-out: MHK (MIC) S. mutans ATCC33402
# Text: (§3) b) Determination of MIC vs. different oral germs in the broth dilution method • Medium: Thioglycolate Bouillon with Hemin and Menadion Columbia Bouillon with Hemin and Menadion für P. gingivalis und P. nigrescens • diluent: the corresponding amount of the substances was pippeted directly • Examples of Test organisms: • Actinobacillus actinomycetemcomitans ATCC43718 • Streptococcus gordonii ATCC10558 • Streptococcus mutans ATCC33402 • Actinomyces viscosus ATCC43146 • Fusobacterium nucleatum subsp. polymorphum ATCC1095 • Porphyromonas gingivalis ATCC3277 • Prevotella nigrescens ATCC33563 • Incubation: 7-10 days at 37° C. under anaerobic conditions, resp. 24 h aerobically with 10% CO2 for Streptococci und A. actinomycetemcomitans • Test solution: Stock solutions in ethanol with 1500 ppm (w/w) are used from all test substances
# (§4) Bacteria are taken from blood agar plates with cotton swabs and a suitable O.D. is adjusted in the corresponding medium (McFarland 0.5). This solution is used for F. nucleatum and P. nigrescens in undiluted state, for the other strains a dilution of 1:20 is used. To each 2 ml of active ingredient containing solution 0.1 ml of the bacteria culture is added and incubated as described above.
# [11] = tested on: Candida albicans ATCC 10231; experiment: MIC, Agar incorporation test; type: cell-based; details: Candida albicans, ATCC10231, 72 h, Sabouraud 4% glucose agar, 3 days at 28° C.
# Method: 0.3 ml of each dilution step is mixed with 15 ml of nutrient medium while the latter is still liquid. After the nutrient medium has solidified, 10 μl of each of the following organism dilutions of the test strains in 0.85% NaCl solution are spotted onto the agar medium. […]
# P. gingivalis ATCC3277 = experiment: MIC vs. oral germs, broth dilution method; type: cell-based, Porphyromonas gingivalis; details: Porphyromonas gingivalis
# Text: as §3, §4
# A. viscosus ATCC43146 = experiment: MIC vs. oral germs, broth dilution method; type: cell-based, Actinomyces viscosus; details: Actinomyces viscosus
# Text: as §3, §4
# P. nigrescens ATCC33563 = experiment: MIC vs. oral germs, broth dilution method; type: cell-based, Prevotella nigrescens; details: Prevotella nigrescens
# Text: as §3, §4
# S. gordonii ATCC10558 = experiment: MIC vs. oral germs, broth dilution method; type: cell-based, Streptococcus gordonii; details: Streptococcus gordonii, read-out: MHK (MIC) S. gordonii ATCC10558
# Text: as §3, §4
# [12] = tested on: Actinomyces viscosus ATCC 43146; experiment: Automatic MIC-Screening, broth dilution method; type: cell-based; details: micro titer plates, 37° C., 24 hours, tested 120 to 3.75 μg/ml
# Method: (§5) Determination of the Minimum Inhibitory Concentration (MIC Value)
# (§6) 8 μl of each dilution step is mixed with 192 μl of nutrient medium in micro titer plates. The plates are incubated at 37° C. for 24 hours and then the highest dilution (lowest concentration) of the test substance at which growth is just no longer discernible is determined (corresponds to the MIC).
# [13] = tested on: Corynebacterium sp. (Corynebacterium xerosis ATCC 373 oder C. minutissimum ATCC 23348); experiment: Automatic MIC-Screening, broth dilution method; type: cell-based; details: micro titer plates, 37° C., 24 hours, tested 120 to 3.75 μg/ml
# Method: as §5, §6
# [14] = tested on: Staphylococcus aureus ATCC 6538; experiment: Automatic MIC-Screening, broth dilution method; type: cell-based; details: micro titer plates, 37° C., 24 hours, tested 120 to 3.75 μg/ml
# Method: as §5, §6
# [15] = tested on: A. actinomycetemcomitans ATCC43718; experiment: MIC vs. oral germs, broth dilution method; type: cell-based, Actinobacillus actinomycetemcomitans; details: Aggregatibacter actinomycetemcomitans, read-out: MHK (MIC) A. actinomycetemcomitans ATCC43718
# Text: as §3, §4
# [16] = tested on: F. nucleatum subsp. polymorphum ATCC10953; experiment: MIC vs. oral germs, broth dilution method; type: cell-based, Fusobacterium nucleatum subsp. polymorphum; details: Fusobacterium nucleatum
# Text: as §3, §4
# [17] = ATCC3277, read-out: MHK (MIC) P. gingivalis ATCC3277
# [18] = ATCC43146, read-out: MHK (MIC) A. viscosus ATCC43146
# [19] = ATCC33563, read-out: MHK (MIC) P. nigrescens ATCC33563
# [20] = ATCC10953, read-out: MHK (MIC) F. nucleatum subsp. polymorphum ATCC10953
SMILES,MIC [1] [µg/mL],MIC [2] [µg/mL],MIC [3] [µg/mL],MIC [4] [µg/mL],MIC [5] [µg/mL],MIC [6] [µg/mL],MIC [7] [µg/mL],MIC [8] [µg/mL],MIC [10] [µg/mL],"MIC (S. mutans ATCC33402; ATCC33402, 24 h) [µg/mL]",MIC [11] [µg/mL],MIC (P. gingivalis ATCC3277; [17]) [µg/mL],MIC (A. viscosus ATCC43146; [18]) [µg/mL],MIC (P. nigrescens ATCC33563; [19]) [µg/mL],"MIC (S. gordonii ATCC10558; ATCC10558, 24 h) [µg/mL]",MIK (MIC) A. viscosus [12] [μγ/ml],MIK (MIC) Corynebacterium sp. [13] [μγ/ml],MIK (MIC) S. aureus [14] [μγ/ml],"MIC ([15]; ATCC43718, 24 h) [µg/mL]","MIC [16, 20] [µg/mL]",further results
"CCCCOC(=O)/C(C#N)=C(\O)c1ccc(-c2ccccc2)cc1 [(101b), 3-biphenyl-4-yl-2-cyano-3-hydroxy-acrylic acid butylester]",> 100,> 100,12.5,12.5,> 100,6.25,> 100,3.13,6.25,5.63,> 100,3.75,3.75,> 15,3.75,7.5,15,7.5,15,≤ 0.94,MIC [9]: > 100 µg/mL
"CC(C)COC(=O)/C(C#N)=C(\O)c1ccc(-c2ccccc2)cc1 [(101c), 3-biphenyl-4-yl-2-cyano-3-hydroxy-acrylic acid isobutylester]",> 50,> 50,12.5,12.5,> 50,6.25,> 50,3.13,12.5,5.63,> 50,7.5,7.5,> 15,3.75,7.5,7.5,7.5,15,7.5,MIC [9]: > 50 µg/mL
"CCCCCCCCOC(=O)/C(C#N)=C(\O)c1ccc(-c2ccccc2)cc1 [(101d), 3-biphenyl-4-yl-2-cyano-3-hydroxy-acrylic acid octylester]",> 400,> 400,< 1.56,6.25,> 400,< 1.56,> 400,< 1.56,< 1.56,≤ 0.94,> 400,7.5,≤ 0.94,> 15,≤ 0.94,<3.75,<3.75,<3.75,≥ 15,15,MIC [9]: > 400 µg/mL
"CCCCC(CC)COC(=O)C(C#N)=C(O)c1ccc(-c2ccccc2)cc1 (stereo not drawn) [(101e), 3-biphenyl-4-yl-2-cyano-3-hydroxy-acrylic acid 2-ethyl-hexylester]",> 500,> 500,,0.94,,1.9,,1.9,1.9,< 0.94,> 500,15,< 0.94,> 15,< 0.94,,,,> 15,> 15,
CCCCCCCCOC(=O)/C(C#N)=C(\O)c1ccc(-c2ccc(/C(O)=C(\C#N)C(=O)OCCCCCCCC)cc2)cc1 [(102a)],,,,,,,,,,,,,,,,<3.75,>120,<3.75,,,"MIC (S. mutans ATCC33402; ATCC33402, broth dilution, 24 h aerobically with 10% CO2, 37° C.): > 15 µg/mL; MIC (P. gingivalis ATCC3277; ATCC3277, broth dilution, Columbia Bouillon with Hemin and Menadion, 7-10 days at 37° C., anaerobic, read-out: MHK (MIC) P. gingivalis ATCC3277): > 15 µg/mL; MIC (A. viscosus ATCC43146; ATCC43146, broth dilution, 7-10 days at 37° C., anaerobic, read-out: MHK (MIC) A. viscosus ATCC43146): 7.5 µg/mL; MIC (P. nigrescens ATCC33563; ATCC33563, broth dilution, Columbia Bouillon with Hemin and Menadion, 7-10 days at 37° C., anaerobic, read-out: MHK (MIC) P. nigrescens ATCC33563): > 15 µg/mL; MIC (S. gordonii ATCC10558; ATCC10558, broth dilution, 24 h aerobically with 10% CO2, 37° C.): 15 µg/mL; MIC ([15]; ATCC43718, broth dilution, 24 h aerobically with 10% CO2, 37° C.): > 15 µg/mL; MIC ([16]; ATCC10953, broth dilution, 7-10 days at 37° C., anaerobic, read-out: MHK (MIC) F. nucleatum subsp. polymorphum ATCC10953): ≥ 15 µg/mL"
